Assay results from patent US9006487B2, “Amine-containing lipids and uses thereof” (Massachusetts Institute of Technology, priority 2005, dated 2015).

Tested on: cos-7 cells
Experiment: DNA transfection: luciferase expression relative to Lipofectamine 2000
Assay type: cell-based
Conditions: 300 ng Luciferase DNA per well, luciferase assay after 48 hours
How it was run: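 Lipid/DNA complexes, 300 ng luciferase DNA per well at 2.5-25 w/w lipid:DNA, were formed in sodium acetate/Optimem and added to overnight-seeded cos-7 cells. Luciferase was measured by Bright-Glo luminescence after 48 hours and quantified against an enzyme standard curve. Values are expressed as % of Lipofectamine 2000 at 2.5 w/w.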

| Structure (SMILES) | Luciferase expression as a percentage of that achieved using Lipofectamine 2000 (lipid/DNA 2.5 w/w) | Luciferase expression as a percentage of that achieved using Lipofectamine 2000 (lipid/DNA 5 w/w) | Luciferase expression as a percentage of that achieved using Lipofectamine 2000 (lipid/DNA 10 w/w) | Luciferase expression as a percentage of that achieved using Lipofectamine 2000 (lipid/DNA 15 w/w) | Luciferase expression as a percentage of that achieved using Lipofectamine 2000 (lipid/DNA 20 w/w) | Luciferase expression as a percentage of that achieved using Lipofectamine 2000 (lipid/DNA 25 w/w) |
| --- | --- | --- | --- | --- | --- | --- |
| CCCCCCCCCCCCCCOC(=O)CCN(CCCCO)CCC(=O)OCCCCCCCCCCCCCC [LF28] | 0.1% | 0.1% | 0.1% | 0.2% | 0.3% | 0.4% |
| CCCCCCCCCCCCCCOC(=O)CCN(CCCCCO)CCC(=O)OCCCCCCCCCCCCCC [LF32] | 0.1% | 0.1% | 0.2% | 0.1% | 0.4% | 0.4% |
| CCCCCCCCCCCCCCOC(=O)CCN(CCC(=O)OCCCCCCCCCCCCCC)CC(C)(C)CO [LF33] | 0.1% | 0.1% | 0.1% | 0.1% | 0.1% | 0.1% |
| CCCCCCCCCCCCCCOC(=O)CCN(CCC(=O)OCCCCCCCCCCCCCC)C(CC)(CO)CO [LF34] | 0.1% | 0.3% | 1.1% | 0.5% | 0.2% | 0.3% |
| CCCCCCCCCCCCCCOC(=O)CCN(CCCCCCO)CCC(=O)OCCCCCCCCCCCCCC [LF36] | 0.1% | 0.1% | 0.1% | 0.1% | 0.1% | 0.1% |
| CCCCCCCCCCCCCCOC(=O)CCN(CCC(=O)OCCCCCCCCCCCCCC)C1CCC(O)CC1 (stereo not drawn) [LF38] | 0.8% | 0.9% | 0.9% | 0.9% | 0.8% | 1.0% |
| CCCCCCCCCCCCCCOC(=O)CCN(C)CCN(C)CCC(=O)OCCCCCCCCCCCCCC [LF60] | 0.4% | 0.4% | 0.5% | 0.5% | 0.5% | 0.5% |
| CCCCCCCCCCCCCCOC(=O)CCN(CC)CCN(CC)CCC(=O)OCCCCCCCCCCCCCC [LF61] | 0.1% | 0.1% | 0.1% | 0.1% | 0.1% | 0.1% |
| CCCCCCCCCCCCCCOC(=O)CCN(CCN(CCC(=O)OCCCCCCCCCCCCCC)C(C)C)C(C)C [LF62] | 0.1% | 0.1% | 0.2% | 0.1% | 0.4% | 0.2% |
| CCCCCCCCCCCCCCOC(=O)CCN1CCCN(CCC(=O)OCCCCCCCCCCCCCC)CC1 [LF70] | 0.1% | 0.1% | 0.2% | 0.3% | 0.2% | 0.3% |
| CCCCCCCCCCCCCCOC(=O)CCN(CCC(=O)OCCCCCCCCCCCCCC)CCN(CC)CC [LF75] | 0.7% | 1.0% | 0.7% | 1.9% | 1.7% | 1.7% |
| CCCCCCCCCCCCCCOC(=O)CCN(CCC(=O)OCCCCCCCCCCCCCC)CCN1CCCC1 [LF76] | 1.7% | 5.6% | 9.8% | 24.3% | 22.2% | 19.5% |
| CCCCCCCCCCCCCCOC(=O)CCN(CCC(=O)OCCCCCCCCCCCCCC)CCC1CCCN1C (stereo not drawn) [LF77] | 3.7% | 25.1% | 28.2% | 24.1% | 17.0% | 22.1% |
| CCCCCCCCCCCCCCOC(=O)CCN(CCC(=O)OCCCCCCCCCCCCCC)C(C)CN(C)C (stereo not drawn) [LF79] | 0.1% | 0.3% | 0.3% | 0.3% | 0.3% | 0.3% |
